These results are taken from ChEMBL document CHEMBL1149799, “Bioactive peroxides as potential therapeutic agents” (Eur J Med Chem, 2008).

≈ marks a conversion by molar mass, not a printed value.

Assay [1] in a line: Inhibition of human SKW3 cells adhesion to soluble ICAM1. It counts as functional, cell-based.
For assay [2], the target named is Protein kinase C beta type (Homo sapiens) (UniProt P05771). Put plainly: Agonist activity at protein kinase C beta-1 at 50 pg/mL. In kind it is functional.
Protein kinase C beta type (Homo sapiens), sequence (P05771 2-671 limits assumed): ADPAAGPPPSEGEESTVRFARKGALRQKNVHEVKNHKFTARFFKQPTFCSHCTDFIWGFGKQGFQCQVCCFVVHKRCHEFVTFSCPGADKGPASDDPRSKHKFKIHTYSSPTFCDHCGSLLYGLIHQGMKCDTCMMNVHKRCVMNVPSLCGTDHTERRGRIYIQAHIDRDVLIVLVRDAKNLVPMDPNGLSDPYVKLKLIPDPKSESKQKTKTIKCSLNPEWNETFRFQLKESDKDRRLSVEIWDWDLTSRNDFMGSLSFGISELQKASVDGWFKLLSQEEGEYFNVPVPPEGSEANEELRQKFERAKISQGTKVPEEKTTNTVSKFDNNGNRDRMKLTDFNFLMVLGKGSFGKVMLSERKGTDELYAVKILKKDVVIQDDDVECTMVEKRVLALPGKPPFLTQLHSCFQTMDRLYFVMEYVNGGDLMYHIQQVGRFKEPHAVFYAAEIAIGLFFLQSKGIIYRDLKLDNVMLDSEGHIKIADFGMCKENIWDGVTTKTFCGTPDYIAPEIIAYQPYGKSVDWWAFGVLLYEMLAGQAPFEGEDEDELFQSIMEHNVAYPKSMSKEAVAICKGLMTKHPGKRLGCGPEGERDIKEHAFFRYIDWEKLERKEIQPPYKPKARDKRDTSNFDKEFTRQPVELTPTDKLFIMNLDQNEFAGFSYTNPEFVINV
For assay [3] the target is unchanged. Put plainly: Agonist activity at protein kinase C beta2 at 50 pg/mL. It counts as functional.
In assay [4] the target is Protein kinase C alpha type (Homo sapiens) (UniProt P17252). Nature of the assay: Agonist activity at protein kinase C alpha at 50 pg/mL. It counts as functional.
Assay [5] addresses Protein kinase C epsilon type (Homo sapiens) (UniProt Q02156). Put plainly: Agonist activity at protein kinase C epsilon at 50 pg/mL. In kind it is functional.
In assay [6] the target is Protein kinase C gamma type (Homo sapiens, UniProt P05129). Put plainly: Agonist activity at protein kinase C gamma at 50 pg/mL. It counts as functional.
Assay [7] has as its target Protein kinase C delta type (Homo sapiens) (UniProt Q05655). Nature of the assay: Agonist activity at protein kinase C delta at 50 pg/mL. It counts as functional.
For another assay, the system named is Aspergillus fumigatus. Put plainly: Antifungal activity against Aspergillus fumigatus. It counts as functional.
A further assay relates to Candida albicans. Nature of the assay: Antifungal activity against Candida albicans. In kind it is functional.
A further assay deals with T47D. Put plainly: Cytotoxicity against human T47D cells. It counts as functional.
Another assay has as its system ACHN. Put plainly: Cytotoxicity against human ACHN cells. It counts as functional, cell-based.
The next assay concerns DU-145. Put plainly: Cytotoxicity against human DU145 cells. In kind it is functional, cell-based. The conditions noted are these: Homo sapiens, DU-145; read-out: GI50.
The next assay deals with NCI-H322M. Put plainly: Cytotoxicity against human NCI-H322M cells. In kind it is functional.
For a further assay, the system named is UO-31. Put plainly: Cytotoxicity against human UO31 cells. In kind it is functional.
A further assay concerns EKVX. Put plainly: Cytotoxicity against human EKVX cells. In kind it is functional.
The subject of another assay is TK-10. Put plainly: Cytotoxicity against human TK10 cells. It counts as functional.
The next assay has as its system OVCAR-3. Put plainly: Cytotoxicity against human OVCAR-3 cells. In kind it is functional, cell-based.
Another assay deals with SK-OV-3. Put plainly: Cytotoxicity against human SK-OV-3 cells. In kind it is functional, cell-based.
The test system of a further assay is SNB-75. Put plainly: Cytotoxicity against human SNB75 cells. It counts as functional, cell-based.
In the next assay the test system is MOLT-4. Nature of the assay: Cytotoxicity against human MOLT4 cells.
For a further assay, the system named is IGROV-1. Nature of the assay: Cytotoxicity against human IGROV1 cells. In kind it is functional.
The test system of the next assay is OVCAR-4. Nature of the assay: Cytotoxicity against human OVCAR4 cells. In kind it is functional, cell-based.
The nature of assay [8]: Cytotoxicity against human K652 cells. It counts as functional.
The nature of assay [9]: Cytotoxicity against human RPMI8266 cells. In kind it is functional.
The subject of another assay is LOX IMVI. Nature of the assay: Cytotoxicity against human LOXI MVI cells. In kind it is functional, cell-based.
The subject of a further assay is HCT-15. Put plainly: Cytotoxicity against human HCT15 cells. In kind it is functional, cell-based.
For a further assay, the system named is CAKI-1. Nature of the assay: Cytotoxicity against human CAKI1 cells. In kind it is functional.
The test system of the next assay is SK-MEL-5. Put plainly: Cytotoxicity against human SK-MEL-5 cells. It counts as functional.
For a further assay, the system named is PC-3. Put plainly: Cytotoxicity against human PC3 cells. Particulars: Homo sapiens, PC-3. In kind it is functional, cell-based.
A further assay deals with SW-620. Nature of the assay: Cytotoxicity against human SW620 cells. It counts as functional.
The subject of a further assay is HCC 2998. Put plainly: Cytotoxicity against human HCC2998 cells. In kind it is functional, cell-based.
The subject of the next assay is OVCAR-8. Nature of the assay: Cytotoxicity against human OVCAR8 cells. It counts as functional, cell-based.
Another assay relates to COLO 205. Nature of the assay: Cytotoxicity against human COLO205 cells.
For another assay, the system named is BT-549. Nature of the assay: Cytotoxicity against human BT-549 cells. In kind it is functional.
Another assay has as its system SN12C. Nature of the assay: Cytotoxicity against human SN12C cells. In kind it is functional.
The test system of a further assay is OVCAR-5. Put plainly: Cytotoxicity against human OVCAR5 cells. It counts as functional, cell-based.
The nature of assay [10]: Cytotoxicity against human CFUGM. In kind it is functional. Particulars: CFU-GM.
The test system of another assay is UACC-62. Nature of the assay: Cytotoxicity against human UACC62 cells. It counts as functional.
In the next assay the test system is KM12. Put plainly: Cytotoxicity against human KM12 cells. In kind it is functional, cell-based.
For the next assay, the system named is HOP-62. Put plainly: Cytotoxicity against human HOP62 cells. It counts as functional.
A short description of assay [11]: Cytotoxicity against human CCRF-GEM cells. In kind it is functional.
A further assay concerns SK-MEL-2. Nature of the assay: Cytotoxicity against human SK-MEL-2 cells. In kind it is functional.
The test system of the next assay is SNB-19. Nature of the assay: Cytotoxicity against human SNB19 cells. In kind it is functional.
For a further assay, the system named is HCT-116. Nature of the assay: Cytotoxicity against human HCT116 cells. In kind it is functional, cell-based.
Another assay concerns MCF7. Put plainly: Cytotoxicity against human MCF7 cells. The conditions noted are these: Homo sapiens, MCF7; read-out: GI50. It counts as functional, cell-based.
A further assay deals with A549. Put plainly: Cytotoxicity against human A549 cells. In kind it is functional, cell-based. The conditions noted are these: Homo sapiens, A549.
The nature of assay [12]: Cytotoxicity against human MCF7/ADR-RES cells. It counts as functional. The conditions noted are these: NCI/ADR-RES.
The test system of a further assay is HT-29. Put plainly: Cytotoxicity against human HT29 cells. In kind it is functional.
A short description of assay [13]: Cytotoxicity against human HB60 cells. It counts as functional.
The next assay deals with SK-MEL-28. Nature of the assay: Cytotoxicity against human SK-MEL-28 cells. It counts as functional.
The next assay deals with MDA-MB-435. Nature of the assay: Cytotoxicity against human MDA-MB-435 cells. It counts as functional.
Assay [14] can be described thus: Cytotoxicity against mouse Ehrlich Ascites carcinoma by […] assay. In kind it is functional.
In a further assay the test system is HOP-92. Put plainly: Cytotoxicity against human HOP92 cells. It counts as functional.
Another assay relates to SF-295. Put plainly: Cytotoxicity against human SF295 cells. It counts as functional, cell-based.
In another assay the test system is UACC-257. Nature of the assay: Cytotoxicity against human UACC257 cells. It counts as functional.
For another assay, the system named is A498. Nature of the assay: Cytotoxicity against human A498 cells. In kind it is functional.
Another assay has as its system RXF 393. Put plainly: Cytotoxicity against human RXF393 cells. In kind it is functional.
In another assay the test system is U-251. Put plainly: Cytotoxicity against human U251 cells. It counts as functional, cell-based.
A short description of assay [15]: Cytotoxicity against mouse Ehrlich Ascites carcinoma by clonogenic assay. In kind it is functional.
For another assay, the system named is 786-0. Put plainly: Cytotoxicity against human renal 7860 cells by soft agar assay. It counts as functional.
A further assay deals with NCI-H23. Put plainly: Cytotoxicity against human NCI-H23 cells. In kind it is functional, cell-based.
In the next assay the test system is MDA-N. Put plainly: Cytotoxicity against human MDA-N cells. It counts as functional.
The subject of a further assay is NCI-H460. Nature of the assay: Cytotoxicity against human NCI-H460 cells. In kind it is functional, cell-based. Particulars: Homo sapiens, NCI-H460; read-out: GI50.
Assay [16] is described as follows: Cytotoxicity against human RES MDA-MB-231/ATCC cells. It counts as functional.
A further assay relates to P388. Put plainly: Cytotoxicity against mouse P388 cells at 0.5 ug/mL. In kind it is functional.
A further assay relates to HCT-8. Put plainly: Cytotoxicity against human HCT8 cells at 10 ug/mL. It counts as functional.

Protein kinase C epsilon type (Homo sapiens), sequence (Q02156 whole entry): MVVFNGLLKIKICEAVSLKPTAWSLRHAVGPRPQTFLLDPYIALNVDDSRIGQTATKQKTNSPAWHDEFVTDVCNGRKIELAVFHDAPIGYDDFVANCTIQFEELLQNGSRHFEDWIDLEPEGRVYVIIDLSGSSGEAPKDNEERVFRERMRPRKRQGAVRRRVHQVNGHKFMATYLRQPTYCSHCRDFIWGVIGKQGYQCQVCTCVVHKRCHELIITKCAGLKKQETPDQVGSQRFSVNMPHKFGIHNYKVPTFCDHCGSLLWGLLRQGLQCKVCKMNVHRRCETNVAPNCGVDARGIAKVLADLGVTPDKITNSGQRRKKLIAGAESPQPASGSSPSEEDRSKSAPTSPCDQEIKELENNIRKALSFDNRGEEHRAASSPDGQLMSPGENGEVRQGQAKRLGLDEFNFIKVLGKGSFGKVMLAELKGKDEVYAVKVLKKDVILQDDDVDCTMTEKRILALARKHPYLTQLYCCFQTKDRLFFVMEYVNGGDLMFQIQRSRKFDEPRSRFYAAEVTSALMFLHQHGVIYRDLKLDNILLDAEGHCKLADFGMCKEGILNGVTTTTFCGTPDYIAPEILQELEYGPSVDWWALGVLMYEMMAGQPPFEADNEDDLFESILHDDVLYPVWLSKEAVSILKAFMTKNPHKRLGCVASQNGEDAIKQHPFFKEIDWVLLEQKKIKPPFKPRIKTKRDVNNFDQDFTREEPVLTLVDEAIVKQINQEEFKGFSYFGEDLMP
Protein kinase C delta type (Homo sapiens), sequence (Q05655 whole entry, looked up): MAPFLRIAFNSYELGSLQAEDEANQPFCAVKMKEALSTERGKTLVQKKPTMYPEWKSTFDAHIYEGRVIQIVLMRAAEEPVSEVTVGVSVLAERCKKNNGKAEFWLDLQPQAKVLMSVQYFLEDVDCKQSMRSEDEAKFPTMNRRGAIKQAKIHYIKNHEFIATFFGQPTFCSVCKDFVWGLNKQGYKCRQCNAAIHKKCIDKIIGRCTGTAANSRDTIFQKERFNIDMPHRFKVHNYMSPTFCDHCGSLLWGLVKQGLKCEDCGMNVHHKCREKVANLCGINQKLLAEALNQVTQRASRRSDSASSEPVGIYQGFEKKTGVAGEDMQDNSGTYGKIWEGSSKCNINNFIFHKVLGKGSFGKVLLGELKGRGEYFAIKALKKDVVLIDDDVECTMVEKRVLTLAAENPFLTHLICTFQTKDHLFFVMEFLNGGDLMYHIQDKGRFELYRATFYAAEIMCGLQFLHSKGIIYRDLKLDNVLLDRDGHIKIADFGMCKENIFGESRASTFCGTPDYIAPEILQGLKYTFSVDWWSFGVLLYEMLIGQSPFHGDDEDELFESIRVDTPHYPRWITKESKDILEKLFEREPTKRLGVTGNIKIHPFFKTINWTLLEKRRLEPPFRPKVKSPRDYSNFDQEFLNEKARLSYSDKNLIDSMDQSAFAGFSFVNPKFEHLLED

`Cc1ccc2c(c1O)C(=O)c1c(cc(O)c(C(=O)O)c1C)[C@]2(C)OO[C@@]1(C)c2cc(O[C@H]3O[C@@H](CO)[C@@H](O)[C@@H](O)[C@@H]3O)c(C(=O)O)c(C)c2C(=O)c2c1ccc(C)c2O` [ADXANTHROMYCIN A] came in with an IC50 in [1] of 18.8 µg/mL (≈ 23 µM).

Take `Cc1ccc2c(c1O)C(=O)c1c(cc(O)c(C(=O)O)c1C)[C@]2(C)OO[C@@]1(C)c2cc(O[C@H]3O[C@@H](CO)[C@@H](O)[C@@H](O[C@@H]4O[C@H](CO)[C@H](O)[C@H](O)[C@H]4O)[C@@H]3O)c(C(=O)O)c(C)c2C(=O)c2c1ccc(C)c2O` [ADXANTHROMYCIN B]: the IC50 in assay [1] worked out at 25 µg/mL (≈ 25.5 µM).

Turning to `CC(CCCCCCCCc1ccccc1)C[C@]1(C)C[C@]2(C)OC(=O)C[C@@H]2OO1` (some centres not stated), the Activity in assay [2] was 13%; in assay [3], 27%; in assay [4], 19%; in assay [5], 38%; in assay [6], 9%; in [7] it was 9%.

For the compound `CC/C=C/C(CC)C/C=C/[C@@]1(CC)C[C@H](CC)[C@@H](CC(=O)O)OO1` (some centres not stated), the IC90 in the assay with Aspergillus fumigatus is 5.6 µg/mL (≈ 16.5 µM). The compound further displayed an MIC in the assay on Candida albicans of 5 µg/mL (≈ 14.8 µM).

With `C[C@H]1[C@H](O[C@@H]2O[C@@H]3O[C@]4(C)CC[C@H]5[C@H](C)CC[C@@H]([C@H]2C)[C@@]35OO4)O[C@@H]2O[C@]3(C)CC[C@H]4[C@H](C)CC[C@@H]1[C@@]24OO3`, the GI50 in the assay on T47D stood at 30 nM; in the assay with ACHN, 100 nM; in the assay on DU-145, 5100 nM; in the assay with NCI-H322M, 10800 nM; with UO-31, 63 nM; in the assay on EKVX it was 76 nM. Besides, the GI50 was determined as 240 nM in the assay on TK-10; 460 nM in the assay on OVCAR-3; 480 nM in the assay with SK-OV-3; 220 nM with SNB-75; 57 nM in the assay with MOLT-4; 1050 nM with IGROV-1. Also, the 50% growth inhibitory concentration (GI50) in the assay on OVCAR-4 is 290 nM; in assay [8], 68 nM; in assay [9], 13 nM; in the assay with LOX IMVI, 30 nM; in the assay on HCT-15 it was 24 nM; in the assay on CAKI-1, 280 nM. Further, the GI50 amounted to 53 nM in the assay on SK-MEL-5; 15 nM in the assay with PC-3; 43 nM in the assay on SW-620; 450 nM in the assay with HCC 2998; 90 nM in the assay on OVCAR-8; 44 nM in the assay on COLO 205. The GI50 stood at 58 nM in the assay on BT-549; 280 nM in the assay on SN12C; 390 nM in the assay with OVCAR-5; 81 nM with UACC-62; 33 nM in the assay with KM12; 10200 nM in the assay with HOP-62. For the same compound, the GI50 was found to be 45 nM in assay [11]; 500 nM in the assay with SK-MEL-2; 1710 nM in the assay with SNB-19; 19 nM in the assay with HCT-116; 110 nM in the assay on MCF7; 98 nM in the assay on A549. In addition, the GI50 in assay [12] turned out to be 220 nM; with HT-29, 50 nM; in assay [13], 28 nM; in the assay with SK-MEL-28, 12300 nM; with MDA-MB-435, 61 nM; with HOP-92, 121 nM. The GI50 stood at 590 nM in the assay on SF-295; 93 nM in the assay on UACC-257; 11600 nM in the assay on A498; 470 nM in the assay on RXF 393; 65 nM in the assay on U-251; 370 nM in the assay on 786-0. Also, the GI50 in the assay with NCI-H23 amounted to 46 nM; in the assay on MDA-N it was 590 nM; with NCI-H460, 68 nM; in assay [16], 400 nM. Moreover, the IC50 amounted to 3600 nM in assay [10], 3600 nM in assay [14] and 55600 nM in [15].

Regarding `CCCCCCCCCCCCCCC[C@]1(C)C[C@](C)(CC(=O)O)OO1`, in the assay on P388, the inhibition at 0.5 µg/mL amounted to 90%. Besides, in the assay on HCT-8, testing at 10 µg/mL gave an inhibition of 90%.

For orientation: IC50 means the point on the concentration scale where inhibition reaches its midpoint. For orientation: IC90 means the concentration needed for an effect of 90%. Low values mean greater potency, high ones weaker potency. Usually MIC stands for the smallest concentration in the dilution series that meets the test's criterion for growth inhibition. High values mean a less susceptible organism, low ones a more susceptible organism. In general, GI50 refers to the concentration at which growth is held to half of that of the control. Usually inhibition stands for the drop in the measured response relative to a control, in per cent. Low readings indicate a response near the control, high ones a response far below the control.
